Data reported in patent publication US10179767B2 (GENENTECH, INC., priority 2015, dated 2019).
Counter-ions that a name gives are not always drawn.

molecular target: T1, hNav1.7 (Homo sapiens, UniProt Q15858); assay: Tritiated sulfonamide binding to membranes from cells expressing hNav1.7 and the β1 subunit (Nav 1.7 ligand binding assay, competitive); settings: competition with 100 pM [3H]compound, room temperature, 18 h
T1 construct: expressed in transfected cells
Protocol: Tritiated Sulfonamide Binding to Membranes Isolated from Cells that Heterologously Express hNav1.7 and the β1 Subunit
Preparation of membranes containing recombinantly expressed sodium channels: Frozen recombinant cell pellets were thawed on ice and diluted to 4 times the cell pellet weight with ice cold 50 mM Tris HCl, pH 7.4 buffer. The cell suspensions were homogenized on ice using a motorized glass dounce homogeniser. Homogenates were further diluted 8.4 times with ice cold 50 mM Tris HCl, pH 7.4 buffer and then centrifuged at 200×g at 4° C. for 15 min. The supernatants were collected and centrifuged at 10000×g at 4° C. for 50 min. The pellets were then re-suspended in 100 mM NaCl, 20 mM Tris HCl, pH 7.4 buffer containing 1% v/v protease inhibitors (Calbiochem) and re-homogenized on ice. The homogenized membranes were then processed through a syringe equipped with a 26 gauge needle. Protein concentrations were determined by Bradford Assay and the membranes were stored at −80° C.
Radioligand Binding Studies:
Saturation experiments. A competitive NaV1.7 inhibitor having a methyl group was tritiated. Three tritiums were incorporated in place of methyl hydrogens to generate [^3H]compound. Binding of this radioligand was preformed in 5 mL borosilicate glass test tubes at room temperature. Binding was initiated by adding membranes to increasing concentrations of [^3H]compound in 100 mM NaCl, 20 mM Tris HCl, pH 7.4 buffer containing 0.01% w/v bovine serum albumin (BSA) for 18 h. Non-specific binding was determined in the presence of 1 μM unlabelled compound. After 18 h, the reactants were filtered through GF/C glass fiber filters presoaked in 0.5% w/v polyethylene imine Filters were washed with 15 mL ice cold 100 mM NaCl, 20 mM Tris HCl, pH7.4 buffer containing 0.25% BSA to separate bound from free ligand. [^3H]compound bound to filters was quantified by liquid scintillation counting.
Competitive Binding Experiments:
Binding reactions were preformed in 96-well polypropylene plates at room temperature for 18 h. In 360 μL, membranes were incubated with 100 pM [^3H]compound and increasing concentrations of Test Compound. Non-specific binding was defined in the presence of 1 μM unlabelled compound. Reactions were transferred and filtered through 96-well glass fiber/C filter plates presoaked with 0.5% polyethylene imine. The filtered reactions were washed 5 times with 200 μL ice cold buffer containing 0.25% BSA. Bound radioactivity was determined by liquid scintillation counting. Data Analysis: For saturation experiments, non-specific binding was subtracted from total binding to provide specific binding and these values were recalculated in terms of pmol ligand bound per mg protein. Saturation curves were constructed and dissociation constants were calculated using the single site ligand binding model: Beq=(Bmax*X)/(X+Kd), where Beq is the amount of ligand bound at equilibrium, Bmax is the maximum receptor density, Kd is the dissociation constant for the ligand, and X is the free ligand concentration. For competition studies percent inhibition was determined and IC50 values were calculated using a 4 parameter logistic model (% inhibition=(A+((B−A)/(1+((x/C)⨣D)))) using XLfit, where A and B are the maximal and minimum inhibition respectively, C is the IC50 concentration and D is the (Hill) slope.

T1 sequence (Q15858 whole entry): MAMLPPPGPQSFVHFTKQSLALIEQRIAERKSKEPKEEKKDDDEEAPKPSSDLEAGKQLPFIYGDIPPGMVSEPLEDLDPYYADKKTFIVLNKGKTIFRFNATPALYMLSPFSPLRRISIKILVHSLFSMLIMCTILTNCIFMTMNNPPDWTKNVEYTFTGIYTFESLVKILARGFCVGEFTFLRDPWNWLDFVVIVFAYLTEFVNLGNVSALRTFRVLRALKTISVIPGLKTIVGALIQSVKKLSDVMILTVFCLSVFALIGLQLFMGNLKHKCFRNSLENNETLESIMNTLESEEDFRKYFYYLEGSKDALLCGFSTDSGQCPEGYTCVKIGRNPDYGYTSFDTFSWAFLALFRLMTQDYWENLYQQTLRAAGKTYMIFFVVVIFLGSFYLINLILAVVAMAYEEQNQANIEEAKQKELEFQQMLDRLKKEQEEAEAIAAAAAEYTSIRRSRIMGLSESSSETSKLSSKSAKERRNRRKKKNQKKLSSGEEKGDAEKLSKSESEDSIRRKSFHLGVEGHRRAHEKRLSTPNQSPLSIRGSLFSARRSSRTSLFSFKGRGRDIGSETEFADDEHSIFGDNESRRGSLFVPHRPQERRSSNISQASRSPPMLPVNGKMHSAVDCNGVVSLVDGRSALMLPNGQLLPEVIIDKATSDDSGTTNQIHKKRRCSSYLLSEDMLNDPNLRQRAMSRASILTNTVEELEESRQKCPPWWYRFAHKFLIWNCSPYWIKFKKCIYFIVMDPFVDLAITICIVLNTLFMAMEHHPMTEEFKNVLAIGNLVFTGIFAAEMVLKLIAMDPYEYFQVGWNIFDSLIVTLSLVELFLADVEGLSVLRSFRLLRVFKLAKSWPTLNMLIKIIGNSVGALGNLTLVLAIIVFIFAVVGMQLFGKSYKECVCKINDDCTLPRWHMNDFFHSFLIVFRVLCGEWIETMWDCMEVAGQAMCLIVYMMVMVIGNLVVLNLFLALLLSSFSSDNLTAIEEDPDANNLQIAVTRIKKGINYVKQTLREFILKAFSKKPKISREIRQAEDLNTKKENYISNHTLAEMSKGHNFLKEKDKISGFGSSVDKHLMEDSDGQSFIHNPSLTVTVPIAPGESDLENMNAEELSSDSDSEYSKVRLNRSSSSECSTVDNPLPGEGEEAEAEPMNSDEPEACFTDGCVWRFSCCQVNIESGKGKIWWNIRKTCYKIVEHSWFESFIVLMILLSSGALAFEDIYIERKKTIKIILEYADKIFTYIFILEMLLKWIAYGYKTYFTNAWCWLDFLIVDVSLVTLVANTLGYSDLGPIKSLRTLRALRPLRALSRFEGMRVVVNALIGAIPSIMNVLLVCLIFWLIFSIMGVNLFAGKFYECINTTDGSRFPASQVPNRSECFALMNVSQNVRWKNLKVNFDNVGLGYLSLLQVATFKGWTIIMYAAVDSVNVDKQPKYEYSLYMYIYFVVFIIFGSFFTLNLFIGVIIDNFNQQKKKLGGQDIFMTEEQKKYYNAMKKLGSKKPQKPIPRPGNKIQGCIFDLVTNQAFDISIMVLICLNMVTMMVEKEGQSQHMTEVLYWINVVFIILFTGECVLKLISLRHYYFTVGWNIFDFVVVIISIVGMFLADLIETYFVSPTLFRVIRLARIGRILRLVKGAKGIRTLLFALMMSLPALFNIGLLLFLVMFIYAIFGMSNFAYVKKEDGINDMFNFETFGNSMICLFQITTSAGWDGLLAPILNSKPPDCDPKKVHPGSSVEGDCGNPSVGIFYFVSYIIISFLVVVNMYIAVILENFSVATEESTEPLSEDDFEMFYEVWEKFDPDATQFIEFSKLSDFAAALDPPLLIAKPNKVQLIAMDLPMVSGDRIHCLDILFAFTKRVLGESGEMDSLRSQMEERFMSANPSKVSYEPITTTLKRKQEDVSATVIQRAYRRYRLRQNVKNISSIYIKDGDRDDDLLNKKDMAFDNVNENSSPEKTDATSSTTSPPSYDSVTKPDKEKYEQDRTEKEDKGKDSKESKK
T1 sequence (Q07699 19-218 partner): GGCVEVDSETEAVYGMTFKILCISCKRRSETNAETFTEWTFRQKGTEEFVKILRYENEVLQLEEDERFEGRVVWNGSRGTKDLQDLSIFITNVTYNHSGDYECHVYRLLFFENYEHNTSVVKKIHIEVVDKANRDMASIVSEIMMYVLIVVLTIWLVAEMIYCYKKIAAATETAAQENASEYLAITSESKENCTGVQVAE

IC50	Structure (SMILES)
3.5 nM	CS(=O)(=O)NC(=O)c1cc(C2CC2)c(OCC2(F)CCN(Cc3ccc(Cl)cc3Cl)CC2)cc1F [Example 20, 5-Cyclopropyl-4-((1-(2,4-dichlorobenzyl)-4-fluoropiperidin-4-yl)methoxy)-2-fluoro-N-(methylsulfonyl)benzamide]
4.4 nM	COCC(c1cc(Cl)cc(Cl)c1F)N1CCC(COc2cc(F)c(C(=O)NS(C)(=O)=O)cc2C2CC2)CC1 (stereo not drawn) [Example 21, 5-cyclopropyl-4-((1-(1-(3,5-dichloro-2-fluorophenyl)-2-methoxyethyl)piperidin-4-yl)methoxy)-2-fluoro-N-(methylsulfonyl)benzamide]
6 nM	CS(=O)(=O)NC(=O)c1cc(C2CC2)c(OCC2CCN(Cc3cc(Cl)cc(OC4CC4)c3)CC2)cc1F [Example 28, 4-((1-(3-Chloro-5-cyclopropoxybenzyl)piperidin-4-yl)methoxy)-5-cyclopropyl-2-fluoro-N-(methylsulfonyl)benzamide]
4.2 nM	CS(=O)(=O)NC(=O)c1cc(C2CC2)c(OCC2(F)CCN(Cc3ccc(F)cc3Cl)CC2)cc1F [Example 29, 4-((1-(2-Chloro-4-fluorobenzyl)-4-fluoropiperidin-4-yl)methoxy)-5-cyclopropyl-2-fluoro-N-(methylsulfonyl)benzamide]
4.9 nM	CS(=O)(=O)NC(=O)c1cc(C2CC2)c(OCC2(F)CCN(Cc3cc(F)cc(Cl)c3)CC2)cc1F [Example 30, 4-((1-(3-Chloro-5-fluorobenzyl)-4-fluoropiperidin-4-yl)methoxy)-5-cyclopropyl-2-fluoro-N-(methylsulfonyl)benzamide]
5.3 nM	CS(=O)(=O)NC(=O)c1cc(C2CC2)c(OCC2(F)CCN(Cc3ccc(F)c(Cl)c3)CC2)cc1F [Example 31, 4-((1-(3-Chloro-4-fluorobenzyl)-4-fluoropiperidin-4-yl)methoxy)-5-cyclopropyl-2-fluoro-N-(methylsulfonyl)benzamide]
140 nM	O=C(NS(=O)(=O)N1CCC1)c1cc(C2CC2)c(O[C@H]2CCCN(Cc3ccc(F)cc3Cl)C2)cc1F [Example 41, (S)—N-(azetidin-1-ylsulfonyl)-4-((1-(2-chloro-4-fluorobenzyl)piperidin-3-yl)oxy)-5-cyclopropyl-2-fluorobenzamide]
19 nM	CS(=O)(=O)NC(=O)c1cc(C2CC2)c(OCC2(F)CCN(Cc3ncc(C(F)(F)F)cc3Cl)CC2)cc1F [Example 42, 4-((1-((3-chloro-5-(trifluoromethyl)pyridin-2-yl)methyl)-4-fluoropiperidin-4-yl)methoxy)-5-cyclopropyl-2-fluoro-N-(methylsulfonyl)benzamide]
9.8 nM	CS(=O)(=O)NC(=O)c1cc(C2CC2)c(OCC2(F)CCN(Cc3cc(C(F)(F)F)cc(C4CC4)n3)CC2)cc1F [Example 43, 5-cyclopropyl-4-((1-((6-cyclopropyl-4-(trifluoromethyl)pyridin-2-yl)methyl)-4-fluoropiperidin-4-yl)methoxy)-2-fluoro-N-(methylsulfonyl)benzamide]
18 nM	CC(c1ncc(Cl)cc1Cl)N1CCC(COc2cc(F)c(C(=O)NS(C)(=O)=O)cc2C2CC2)CC1 (stereo not drawn) [Example 44, 5-cyclopropyl-4-((1-(1-(3,5-dichloropyridin-2-yl)ethyl)piperidin-4-yl)methoxy)-2-fluoro-N-(methylsulfonyl)benzamide]
12 nM	CC(c1cc(Cl)cc(C2CC2)n1)N1CCC(COc2cc(F)c(C(=O)NS(C)(=O)=O)cc2C2CC2)CC1 (stereo not drawn) [Example 46, 4-((1-(1-(4-chloro-6-cyclopropylpyridin-2-yl)ethyl)piperidin-4-yl)methoxy)-5-cyclopropyl-2-fluoro-N-(methylsulfonyl)benzamide]
9.9 nM	CC(c1cc(Cl)cc(C2CC2)n1)N1CCC(COc2cc(F)c(C(=O)NS(=O)(=O)C3CC3)cc2C2CC2)CC1 (stereo not drawn) [Example 47, 4-((1-(1-(4-chloro-6-cyclopropylpyridin-2-yl)ethyl)piperidin-4-yl)methoxy)-5-cyclopropyl-N-(cyclopropylsulfonyl)-2-fluorobenzamide]
9 nM	CC(c1cc(Cl)cc(Cl)c1)N1CCC2(CC1)CC(Oc1cc(F)c(C(=O)NS(C)(=O)=O)cc1C1CC1)C2 (stereo not drawn) [Example 48, 5-cyclopropyl-4-((7-(1-(3,5-dichlorophenyl)ethyl)-7-azaspiro[3.5]nonan-2-yl)oxy)-2-fluoro-N-(methylsulfonyl)benzamide]
11 nM	CS(=O)(=O)NC(=O)c1cc(C2CC2)c(OCC2CCN(Cc3cc(Cl)cc(C4CC4)n3)CC2)cc1F [Example 49, 4-((1-((4-chloro-6-cyclopropylpyridin-2-yl)methyl)piperidin-4-yl)methoxy)-5-cyclopropyl-2-fluoro-N-(methylsulfonyl)benzamide]
9.1 nM	CC(c1cc(C(F)(F)F)cc(C2CC2)n1)N1CCC(COc2cc(F)c(C(=O)NS(C)(=O)=O)cc2C2CC2)CC1 (stereo not drawn) [Example 50, 5-cyclopropyl-4-((1-(1-(6-cyclopropyl-4-(trifluoromethyl)pyridin-2-yl)ethyl)piperidin-4-yl)methoxy)-2-fluoro-N-(methylsulfonyl)benzamide]
11 nM	CC(c1cc(C(F)(F)F)cc(C2CC2)n1)N1CCC(COc2cc(F)c(C(=O)NS(=O)(=O)C3CC3)cc2C2CC2)CC1 (stereo not drawn) [Example 51, 5-cyclopropyl-4-((1-(1-(6-cyclopropyl-4-(trifluoromethyl)pyridin-2-yl)ethyl)piperidin-4-yl)methoxy)-N-(cyclopropylsulfonyl)-2-fluorobenzamide]
2.4 nM	C[C@@H]1[C@H](Oc2cc(F)c(C(=O)NS(C)(=O)=O)cc2C2CC2)CCCN1Cc1cc(Cl)cc(Cl)c1 [Example 52, 5-cyclopropyl-4-(((2R,3R)-1-(3,5-dichlorobenzyl)-2-methylpiperidin-3-yl)oxy)-2-fluoro-N-(methylsulfonyl)benzamide]
9.4 nM	CS(=O)(=O)NC(=O)c1cc(C2CC2)c(OCC2CCN(Cc3cc(Cl)cc(C(F)(F)F)n3)CC2)cc1F [Example 53, 4-((1-((4-chloro-6-(trifluoromethyl)pyridin-2-yl)methyl)piperidin-4-yl)methoxy)-5-cyclopropyl-2-fluoro-N-(methylsulfonyl)benzamide]
4.2 nM	O=C(NS(=O)(=O)C1CC1)c1cc(C2CC2)c(OCC2CCN(Cc3cc(Cl)cc(C(F)(F)F)n3)CC2)cc1F [Example 54]
5.6 nM	CC(C)Oc1ncc(CN2CCC(F)(COc3cc(F)c(C(=O)NS(C)(=O)=O)cc3C3CC3)CC2)cc1Cl [Example 55, 4-((1-((5-chloro-6-isopropoxypyridin-3-yl)methyl)-4-fluoropiperidin-4-yl)methoxy)-5-cyclopropyl-2-fluoro-N-(methylsulfonyl)benzamide]
6.8 nM	CC(C)Oc1ncc(CN2CCC(F)(COc3cc(F)c(C(=O)NS(=O)(=O)C4CC4)cc3C3CC3)CC2)cc1Cl [Example 56, 4-((1-((5-chloro-6-isopropoxypyridin-3-yl)methyl)-4-fluoropiperidin-4-yl)methoxy)-5-cyclopropyl-N-(cyclopropylsulfonyl)-2-fluorobenzamide]
8.6 nM	C[C@@H](c1cc(Cl)cc(Cl)c1)N1CCC(COc2cc(F)c(C(=O)NS(=O)(=O)C3(F)CC3)cc2C2CC2)CC1 [Example 57, (S)-4-((2-cyclopropyl-5-fluoro-4-(((1-fluorocyclopropyl)sulfonyl)carbamoyl)phenoxy)methyl)-1-(1-(3,5-dichlorophenyl)ethyl)piperidin-1-ium trifluoroacetate]
5.6 nM	C[C@@H](c1cc(Cl)cc(Cl)c1)N1CCC(F)(COc2cc(F)c(C(=O)NS(=O)(=O)N3CCC3)cc2C2CC2)CC1 [Example 58, (S)—N-(azetidin-1-ylsulfonyl)-5-cyclopropyl-4-((1-(1-(3,5-dichlorophenyl)ethyl)-4-fluoropiperidin-4-yl)methoxy)-2-fluorobenzamide]
9.3 nM	O=C(NS(=O)(=O)C1CC1)c1cc(C2CC2)c(OCC2(F)CCN(c3cc(C(F)(F)F)c(Cl)cn3)CC2)cc1F [Example 59, 4-((1-(5-chloro-4-(trifluoromethyl)pyridin-2-yl)-4-fluoropiperidin-4-yl)methoxy)-5-cyclopropyl-N-(cyclopropylsulfonyl)-2-fluorobenzamide]
